Source: US10183918B2, “Oxa-azaspiro compounds having activity against pain” (LABORATORIOS DEL DR. ESTEVE S.A., priority 2015, dated 2019)

Target: T1, human σ1 receptor (Homo sapiens, UniProt Q99720)
T1 construct: expressed in transfected cells; host or cells: HEK-293 (membranes)
Assay: Human σ1 receptor radioligand assay
Assay type: binding
Conditions: transfected HEK-293 membranes, 5 nM [3H](+)-pentazocine as radioligand
Method: Human σ1 Receptor Radioligand Assay
To investigate binding properties of test compounds to human σ1 receptor, transfected HEK-293 membranes and [^3H](+)-pentazocine (Perkin Elmer, NET-1056), as the radioligand, were used. The assay was carried out with 7 μg of membrane suspension, 5 nM of [^3H](+)-pentazocine in either absence or presence of either buffer or 10 μM Haloperidol for total and non-specific binding, respectively. Binding buffer contained Tris-HCl 50 mM at pH 8. Plates were incubated at 37° C. for 120 minutes. After the incubation period, the reaction mix was then transferred to Multiscreen HTS, FC plates (Millipore), filtered and plates were washed 3 times with ice-cold 10 mM Tris-HCL (pH7.4). Filters were dried and counted at approximately 40% efficiency in a MicroBeta scintillation counter (Perkin-Elmer) using EcoScint liquid scintillation cocktail

T1 sequence (Q99720 whole entry): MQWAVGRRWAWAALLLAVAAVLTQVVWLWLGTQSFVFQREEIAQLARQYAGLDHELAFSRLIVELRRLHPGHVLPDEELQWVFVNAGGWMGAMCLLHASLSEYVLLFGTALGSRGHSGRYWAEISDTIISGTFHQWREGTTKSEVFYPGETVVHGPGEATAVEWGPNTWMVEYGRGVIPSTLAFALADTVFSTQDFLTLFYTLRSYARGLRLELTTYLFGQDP

| SMILES | Ki |
| --- | --- |
| CCN1C[C@]2(CC[C@H](NCc3ccccc3)CC2)OC2(CC2)C1=O [Example 1, (5s,8s)-8-(benzylamino)-12-ethyl-4-oxa-12-azadispiro[2.1.5.3]tridecan-13-one] | ≥ 0.5 µM |
| CCN1C[C@]2(CC[C@@H](NCc3ccccc3)CC2)OC2(CC2)C1=O [Example 2, (5r,8r)-8-(benzylamino)-12-ethyl-4-oxa-12-azadispiro[2.1.5.3]tridecan-13-one] | < 0.5 µM |
| CCN1C[C@]2(CC[C@H](N(C)CCc3ccccc3)CC2)OC2(CC2)C1=O [Example 3, (5s,8s)-12-ethyl-8[methyl(2-phenylethyl)amino]-4-oxa-12-azadispiro[2.1.5.3]tridecan-13-one] | < 0.1 µM |
| CCN1C[C@]2(CC[C@@H](N(C)CCc3ccccc3)CC2)OC2(CC2)C1=O [Example 4, (5r,8r)-12-ethyl-8-[methyl(2-phenylethyl)amino]-4-oxa-12-azadispiro[2.1.5.3]tridecan-13-one] | < 0.1 µM |
| CCN1C[C@]2(CC[C@H](N(C)Cc3ccccc3)CC2)OC2(CC2)C1=O [Example 5, (5s,8s)-8-[benzyl(methyl)amino]-12-ethyl-4-oxa-12-azadispiro[2.1.5.3]tridecan-13-one] | < 0.1 µM |
| CCN1C[C@]2(CC[C@H](NCCc3ccccc3)CC2)OC2(CC2)C1=O [Example 6, (5s,8s)-12-ethyl-8-[(2-phenylethyl)amino]-4-oxa-12-azadispiro[2.1.5.3]tridecan-13-one] | < 0.5 µM |
| CCN1C[C@]2(CC[C@@H](NCCc3ccccc3)CC2)OC2(CC2)C1=O [Example 7, (5r,8r)-12-ethyl-8-[(2-phenylethyl)amino]-4-oxa-12-azadispiro[2.1.5.3]tridecan-13-one] | < 0.1 µM |
| CN(Cc1ccccc1)[C@H]1CC[C@@]2(CC1)CN(c1ccccc1)C(=O)C1(CC1)O2 [Example 8, (5s,8s)-8-[benzyl(methyl)amino]-12-phenyl-4-oxa-12-azadispiro[2.1.5.3]tridecan-13-one] | < 0.1 µM |
| CN(CCc1ccccc1)[C@H]1CC[C@@]2(CC1)CN(c1ccccc1)C(=O)C1(CC1)O2 [Example 9, (5s,8s)-8-(methyl(2-phenylethyl)amino]-12-phenyl-4-oxa-12-azadispiro[2.1.5.3]tridecan-13-one] | < 0.5 µM |
| O=C1N(c2ccccc2)C[C@]2(CC[C@H](NCc3ccccc3)CC2)OC12CC2 [Example 10, (5s,8s)-8-(benzylamino)-12-phenyl-4-oxa-12-azadispiro[2.1.5.3]tridecan-13-one] | ≥ 0.5 µM |
| O=C1N(c2ccccc2)C[C@]2(CC[C@H](NCCc3ccccc3)CC2)OC12CC2 [Example 11, (5s,8s)-12-phenyl-8-[(2-phenylethyl)amino]-4-oxa-12-azadispiro[2.1.5.3]tridecan-13-one] | < 0.5 µM |
| O=C1N(c2ccccc2)C[C@]2(CC[C@@H](NCc3ccccc3)CC2)OC12CC2 [Example 12, (5r,8r)-8-(benzylamino)-12-phenyl-4-oxa-12-azadispiro[2.1.5.3]tridecan-13-one] | ≥ 0.5 µM |
| O=C1N(c2ccccc2)C[C@]2(CC[C@@H](NCCc3ccccc3)CC2)OC12CC2 [Example 13] | ≥ 0.5 µM |
| CN(Cc1ccccc1)[C@H]1CC[C@]2(CC1)CN(c1ccccc1)C(=O)C1(CC1)O2 [Example 14, (5r,8r)-8-[benzyl(methyl)amino]-12-phenyl-4-oxa-12-azadispiro[2.1.5.3]tridecan-13-one] | < 0.5 µM |
| CN(CCc1ccccc1)[C@H]1CC[C@]2(CC1)CN(c1ccccc1)C(=O)C1(CC1)O2 [Example 15, (5r,8r)-8-[methyl(2-phenylethyl)amino]-12-phenyl-4-oxa-12-azadispiro[2.1.5.3]tridecan-13-one] | < 0.5 µM |
| CCN1C[C@]2(CC[C@@H](N(C)Cc3ccccc3)CC2)OC2(CC2)C1=O [Example 16, (5r,8r)-8-[benzyl(methyl)amino]-12-ethyl-4-oxa-12-azadispiro[2.1.5.3]tridecan-13-one] | < 0.1 µM |
| CCN1CC2(CC2)O[C@]2(CC[C@@H](N(C)Cc3ccccc3)CC2)C1 [Example 17, (5s,8s)-N-benzyl-12-ethyl-N-methyl-4-oxa-12-azadispiro[2.1.5.3]tridecan-8-amine] | < 0.5 µM |
